# Experiments:
# HL-60 [1] = assay: Antiproliferative activity against human HL-60 cells incubated for 48 hrs by MTT assay; assay type: functional, cell-based; conditions: HL-60, 48 h
# HL-60 [2] = assay: Potency index, ratio of berberine IC50 to test compound IC50 for antiproliferative activity against human HL-60 cells incubated for 48 hrs by MTT assay; assay type: functional
# Coxsackievirus B2 = assay: Antiviral activity against Human Coxsackievirus B2 infected in African green monkey Vero cells assessed as reduction in virus-induced cytopathic effect incubated for 48 hrs by microscopic analysis; assay type: functional, organism-based; conditions: Enterovirus B
# Coxsackievirus B3 = assay: Antiviral activity against Coxsackievirus B3 infected in African green monkey Vero cells assessed as reduction in virus-induced cytopathic effect incubated for 48 hrs by microscopic analysis; assay type: functional, organism-based; conditions: Enterovirus B
# Coxsackievirus B4 = assay: Antiviral activity against Coxsackievirus B4 infected in African green monkey Vero cells assessed as reduction in virus-induced cytopathic effect incubated for 48 hrs by microscopic analysis; assay type: functional, organism-based; conditions: Enterovirus B
# Coxsackievirus B5 = assay: Antiviral activity against Coxsackievirus B5 infected in African green monkey Vero cells assessed as reduction in virus-induced cytopathic effect incubated for 48 hrs by microscopic analysis; assay type: functional, organism-based; conditions: Enterovirus B
# Coxsackievirus B6 = assay: Antiviral activity against Human Coxsackievirus B6 infected in African green monkey Vero cells assessed as reduction in virus-induced cytopathic effect incubated for 48 hrs by microscopic analysis; assay type: functional, organism-based; conditions: Enterovirus B
# RAW264.7 [3] = assay: Antiinflammatory activity in LPS-induced mouse RAW264.7 cells assessed as reduction in COX-2 level at 25 uM pretreated for 1 hr followed by LPS stimulation and measured after 49 hrs by ELISA relative to control; assay type: functional; parameters: scale not given: the % may be the effect or the level left; conditions: time 50 hrs
# RAW264.7 [4] = assay: Antiinflammatory activity in LPS-induced mouse RAW264.7 cells assessed as reduction in […] level at 25 uM pretreated for 1 hr followed by LPS stimulation and measured after 49 hrs by ELISA relative to control; assay type: functional; parameters: scale not given: the % may be the effect or the level left; conditions: time 50 hrs
# [5] = Induction of glucose-stimulated insulin secretion in rat INS1 cells assessed as increase in insulin secretion at 25 uM pretreated for 48 hrs followed by glucose stimulation and measured after 1 hr by ELISA; assay type: functional
# [6] = Acute toxicity in ip dosed NIH mouse expressing aP2-SREBP-1c assessed as lethal dose measured for 14 days by modified karber's method; assay type: organism-based; conditions: in vivo, time 14 day
# [7] = Cytotoxicity against mouse 3T3-L1 assessed as reduction in cell viability measured after 48 hrs by CCK-8 assay; assay type: toxicity, cell-based; conditions: 3T3-L1 cells
smiles,measurement,setting,value
COc1ccc2cc3[n+](cc2c1OCCCBr)CCc1cc2c(cc1-3)OCO2.[Cl-],IC50,HL-60 [1],700 nM
same,Ratio IC50,HL-60 [2],30
COc1cc2c(cc1OCCOCCN)CC[n+]1cc3c(OC)c(OC)ccc3cc1-2,IC50,Coxsackievirus B2,3.08 µM
same,IC50,Coxsackievirus B3,3.08 µM
same,IC50,Coxsackievirus B4,3.08 µM
same,IC50,Coxsackievirus B5,3.08 µM
same,IC50,Coxsackievirus B6,3.08 µM
COc1ccc2cc3[n+](cc2c1OCc1nc(C)nc(N(C)C)n1)CCc1cc2c(cc1-3)OCO2.[Cl-],Activity,RAW264.7 [3],25.42%
same,Activity,RAW264.7 [4],36.41%
same,Activity,[5],143%
C=CCc1ccc(O)c(-c2cc(CC=C)ccc2OCCOc2c(OC)ccc3cc4[n+](cc23)CCc2cc3c(cc2-4)OCO3)c1.[Cl-],LD50 at 336 h,[6],279 mg/kg
same,IC50 at 48 h,[7],11.5 µM
